The source made the active and inactive calls.
Assays:
[1] = NIH3T3 cell viability loss – ATP luminescence, mouse fibroblasts, counter-screen, dose response (AID 2010); assay type: functional, cell-based;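 further: cells exposed to compound for about 90 hours before reading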
[2] = Trypanosoma cruzi growth suppression in host cells – NIH3T3 host cells, beta-gal luminescence, confirmation (AID 2044); assay type: functional, cell-based;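 further: intracellular parasites grown in NIH/3T3 mouse fibroblasts as host cells; luminescent beta-galactosidase reporter signal from transgenic T. cruzi replicating inside host cells; inhibitors lower the luminescence signal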
Cytochrome P450 2C19 = Cytochrome P450 2C19 (Homo sapiens, UniProt P33261); test: Cytochrome panel assay with activity outcomes. Panel member name: p450-cyp2c19 Compounds with AC50 equal or less than 10 uM are considered active; assay type: functional
Sequence of Cytochrome P450 2C19 (P33261 whole entry): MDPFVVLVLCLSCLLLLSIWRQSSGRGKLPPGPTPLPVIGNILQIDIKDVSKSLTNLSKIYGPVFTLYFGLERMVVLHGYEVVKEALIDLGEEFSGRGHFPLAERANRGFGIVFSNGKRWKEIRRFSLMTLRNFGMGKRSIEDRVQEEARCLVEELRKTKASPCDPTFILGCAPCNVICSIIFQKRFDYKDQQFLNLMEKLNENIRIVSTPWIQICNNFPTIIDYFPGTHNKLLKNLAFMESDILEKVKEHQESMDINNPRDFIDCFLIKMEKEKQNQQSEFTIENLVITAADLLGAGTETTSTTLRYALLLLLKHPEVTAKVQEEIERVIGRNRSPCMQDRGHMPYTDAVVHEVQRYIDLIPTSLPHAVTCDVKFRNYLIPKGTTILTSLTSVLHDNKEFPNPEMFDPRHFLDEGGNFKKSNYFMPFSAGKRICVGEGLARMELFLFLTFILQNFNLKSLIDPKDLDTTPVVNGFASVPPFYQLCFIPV

Cytochrome P450 3A4 = Cytochrome P450 3A4 (Homo sapiens, UniProt P08684);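 further: CYP3A4 tested as one member of a cytochrome P450 panel screen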
Sequence of Cytochrome P450 3A4 (P08684 whole entry): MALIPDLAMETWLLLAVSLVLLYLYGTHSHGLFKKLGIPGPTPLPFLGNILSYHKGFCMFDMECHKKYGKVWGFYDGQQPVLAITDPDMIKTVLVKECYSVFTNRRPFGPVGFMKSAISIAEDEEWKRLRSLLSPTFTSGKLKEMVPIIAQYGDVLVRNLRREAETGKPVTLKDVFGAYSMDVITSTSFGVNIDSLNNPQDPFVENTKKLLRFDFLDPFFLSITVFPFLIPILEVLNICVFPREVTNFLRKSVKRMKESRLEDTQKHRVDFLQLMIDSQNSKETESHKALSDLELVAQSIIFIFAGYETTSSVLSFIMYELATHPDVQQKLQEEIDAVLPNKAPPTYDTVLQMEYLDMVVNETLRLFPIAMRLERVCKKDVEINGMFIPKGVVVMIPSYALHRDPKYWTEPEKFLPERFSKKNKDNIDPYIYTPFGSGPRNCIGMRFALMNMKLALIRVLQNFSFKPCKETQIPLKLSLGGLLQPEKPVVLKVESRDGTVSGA

| Compound | EC50 [1] | EC50 [2] | AC50 (Cytochrome P450 3A4) | also measured |
| --- | --- | --- | --- | --- |
| CCCCCC(=O)Nc1cc(S(=O)(=O)N2CCOCC2)ccc1N1CCN(C)CC1 | > 60 µM (not active) | 0.813 µM (active) |  |  |
| Cn1c(=O)cnc2cnc(Oc3ccccc3)nc21 |  |  |  | AC50 (Cytochrome P450 2C19; read-out: AC50): 39.8 µM (inconclusive) |
| CCN1CCCC1CNC(=O)c1ccc(Sc2ccc(F)cc2)c([N+](=O)[O-])c1 (configuration not stated) | > 60 µM (inconclusive) | 0.879 µM (active) |  |  |
| Nc1n[nH]c2ccccc12 |  |  | 3.98 µM (inconclusive) |  |
| Cn1c(=O)c(-c2cccc(F)c2)nc2cncnc21 |  |  | 20 µM (inconclusive) |  |
| Cc1nc(C(=O)Nc2ccc(Cl)cc2)sc1C1(C)CC(c2cccc([N+](=O)[O-])c2)=NO1 (configuration not stated) | > 60 µM (not active) | 0.545 µM (active) |  |  |
| CSc1ccccc1NC(=O)c1cc(-c2cccnc2)nc2ccc(Br)cc12 | > 60 µM (not active) | 2 µM (active) |  |  |
| CN(C)c1ncnc2ccc(-c3ccccc3C#N)cc12 |  |  | 1.58 µM (inconclusive) |  |
| COc1ccc(-c2nc3cnc(N4CCN(C)CC4)nc3n(Cc3cccs3)c2=O)cc1 |  |  |  | AC50 (Cytochrome P450 2C19): inconclusive |
| c1ccc(Nc2cccc(Nc3ccccc3)c2)cc1 | > 60 µM (not active) | 0.937 µM (active) |  |  |
| O=C1CCC[C@@H]2Cc3[nH]c4c(Cl)ccc(Cl)c4c3[C@@H]3CCN1[C@H]23 | > 60 µM (not active) | 1.33 µM (active) |  |  |
| CCCOc1ccc(C(=O)NC(=S)Nc2nc3ccc(C)cc3s2)cc1 |  |  |  | AC50 (Cytochrome P450 2C19; read-out: AC50): 15.8 µM (inconclusive) |
| O=C(O)C(=O)Cc1ccc2c(c1)OCO2 |  |  |  | AC50 (Cytochrome P450 2C19): inconclusive |
| COc1ccc(-c2cn3c([n+]2-c2ccccc2)SCC3)cc1 | > 60 µM (not active) | 1.3 µM (active) |  |  |
| C#CCCCO/N=C1/C[C@@H](O)[C@@H](O)[C@@H]2[C@@H]3C(=O)N(C[C@@H]4CCCO4)C(=O)[C@H]3CC[C@H]12 |  |  | 6.31 µM (inconclusive) |  |
| Clc1ccc(NC2=NCCCS2)cc1Cl | > 60 µM (not active) | 1.8 µM (active) |  |  |

| Compound | EC50 [1] | EC50 [2] | AC50 (Cytochrome P450 3A4) | also measured |
| --- | --- | --- | --- | --- |
| O=C1C2CCC(C(O)C2)N1Cc1ccccc1 (configuration not stated) |  |  | 17.8 µM (inconclusive) |  |
| CCN1CCN(C(c2ccccn2)c2c(NC(=O)c3ccccc3)sc(C)c2C)CC1 (configuration not stated) |  |  |  | AC50 (Cytochrome P450 2C19; read-out: AC50): 17.8 µM (inconclusive) |
| CCCC1(C(=O)OC)C=C2C(=C(c3ccccc3)C(=O)C2C)CN1 (configuration not stated) |  |  | 10 µM (inconclusive) |  |
| CCc1cc2c(nc1CC)CCN(CC/C(C)=N/OCC[C@@H]1C=C[C@H](OC(C)=O)[C@H](COC(C)=O)O1)C2 |  |  | 3.16 µM (inconclusive) |  |
| O=C(/C=C/c1cn(-c2ccccc2)nc1-c1cccc(Cl)c1)N1CCN(c2ccccn2)CC1 | > 60 µM (not active) | 1.72 µM (active) |  |  |
| O=C(N[C@@]1(C(=O)O)C[C@@H]1c1ccccc1)c1ccccc1 |  |  |  | AC50 (Cytochrome P450 2C19): inconclusive |
| COC(=O)c1scc(C)c1NC(=O)Cc1ccccc1 |  |  | 22.4 µM (inconclusive) |  |
| COc1ccc(N2CCN(C(CNC(=O)C(=O)NCCCn3ccnc3)c3cccnc3)CC2)cc1 (configuration not stated) | 10.4 µM (active) | < 0.1 µM (active) |  |  |
| COCCn1c(=O)cnc2cnc(Oc3cccc(Cl)c3)nc21 |  |  | 31.6 µM (inconclusive) |  |
| CN1CCN(c2ccccc2NC(=O)c2ccc(-c3ccc(Br)cc3)o2)CC1 | 4.08 µM (active) | 2.18 µM (active) |  |  |
| Cc1nn(Cc2ccc(C(=O)Nc3ccc(C(=O)OC(C)C)cc3)o2)c(C)c1Cl | > 60 µM (not active) | 2.86 µM (active) |  |  |
| CC(C(=O)N1CCc2ccccc21)N1CCN(Cc2ccccc2)CC1 (configuration not stated) | > 60 µM (not active) | 0.793 µM (active) |  |  |
| COc1ccc(C(=O)c2ccc([N+](=O)[O-])cc2Cl)cc1 | > 30 µM (not active) | 2.15 µM (active) |  |  |
| Cc1onc(-c2ccccc2Cl)c1C(=O)NCC(=O)O |  |  |  | AC50 (Cytochrome P450 2C19; read-out: AC50): 39.8 µM (inconclusive) |
| Cc1cccc(NC(=O)Nc2ccncc2)c1 | > 60 µM (not active) | 0.781 µM (active) |  |  |
| O=C(O)/C=C\c1c[nH]cn1 [CIS-UROCANIC ACID] |  |  | 0.251 µM (inconclusive) |  |

— ChEMBL document CHEMBL1201862, “PubChem BioAssay data set” (2004)
